Where a SMILES comes first, the peptide text is derived from it. The star is where a group is joined. Cbz = O=C(OCc1ccccc1)*; CH2F = FC*
Key:
[1] = tested on: clonally-derived CD1 neurospheres; experiment: Neurite extensions / morphology of differentiating neurospheres; format: cell-based, mouse; details: differentiation media up to 5 d, 2.0 μM inhibitor, vs DMSO
Experimental: Neurospheres were sub-cultured no more than once per collection. The differentiation of neurospheres was initated by plating spheres on poly-L-ornithine coated plates in NeuroCult Differentiation Medium in the absence of bFGF, as per manufacturer's instructions. […] All cultures received fresh media and inhibitor every 24 h for the duration of the experiment. Neurospheres from caspase 3 null embryos (Fernando, P., et al., (2002) Proc Natl Acad Sci USA 99, 11025-11030) were cultured as described above.
Immunocytochemistry: Neurospheres were collected at selected time points, fixed in 4% paraformaldehyde and prepared for immunostaining as previously described (Fernando, P., et al., (2002) Proc Natl Acad Sci USA 99, 11025-11030)). The primary antibody concentrations for anti-nestin, -GFAP, -MBP and -active caspase 3 (BioVision, USA) were titrated on wildtype CD1 neurospheres prior to their experimental use. These antibodies were visualized by counterstaining with either FITC or Cy3 conjugated secondary antibodies (Chemicon USA). Nuclei were localized with 4′,6-Diamidino-2 phenylindole (DAPI) (Sigma, USA). Cells were visualized using either an Axiovert 100 for transmission microscopy or Axioplan 2 for fluorescent microscopy (Zeiss, Germany) at selected magnifications. Captured images were processed using AxioVision Viewer 3.0 software.
Quantitation of Neurite Extensions: Neurites from differentiating neurospheres were estimated from a total of 6-8 neurospheres per condition over three independent experiments. To quantitated neuritis, the average diameter of an individual neurosphere was estimated from the vertical and horizontal distance. The number of extensions leaving the neurosphere body were then counted and an ratio of neurosphere extensions:average neurosphere diameter was calculated for each. All measurements including neurosphere diameter were evaluated using Scion Image.

C2C12 myoblasts [2] = experiment: C2C12 myoblast differentiation in low serum media with caspase inhibitors (MF20 staining, immunoblot of myogenic markers); format: cell-based, mouse; details: 20 μM inhibitor
Experimental: (§1) Myoblast culture. C2C12 cell (mouse skeletal muscle myoblast) cultures were grown and maintained in DMEM containing 10% FBS with 50 units/ml penicillin and 50 μg/ml streptomycin (Gibco). Differentiation was induced by incubating cultures in DMEM containing only a low serum concentration (2% horse serum). Caspase activity was measured using a Caspase-3 and Caspase-8 Fluorometric Assay Kit (Pharmingen). […] Control cells were treated with an equivalent amount of vehicle (DMSO). Primary myoblast cells were derived from skeletal muscles of the hind- and fore-limbs from 1-2 day old C57BL/6 wild-type, caspase-3 heterozygous and caspase-3 null mice (Frasch, S. C., et al., (1998) J. Biol. Chem. 273, 8389-8397; Kuida, K., et al., (1996) Nature 384, 368-372) (n=5 for each genotype) as described (Cregan, S. P. et al., (1999) J. Neuro. 19, 7860-7869.). To induce differentiation, primary myoblast cultures were incubated in DMEM containing 5% horse serum.
Protein isolation, immunoblot analyses and immunocytochemistry. Cells from C2C12 and primary myoblast cultures were washed with ice-cold PBS and lysed on ice for 45 minutes in modified-RIPA buffer containing 20 mM NaF, 5 mM Na3VO4 and 10 μg/ml each of aprotinin, leupeptin, pepstatin and PMSF. Total protein was measured using the BCA protein assay (Pierce). Immunoblot analyses were performed as described (Creasy, C. L., & Chernoff, J. (1995) J. Biol. Chem. 270, 21695-21700) using antibodies for MST1, MKK6, p38γ, and p38α (Upstate), p38 and MEF2C (Cell Signaling Technologies), myogenin F5D and myosin heavy chain MF20 mAb (Developmental Hybridoma Bank), and active caspase-3 (Biovision).
C2C12 myoblasts were fixed and stained with anti-MF20 as previously described (Cregan, et al., (1999) J. Neuro. 19, 7860-7869). Primary myoblast cultures were fixed in 4% paraformaldehyde, rinsed three times in PBS containing 0.01% Triton X-100 and stained as above. For both C2C12 and primary myoblast cultures, nuclei were detected by incubating cells for 10 min with 4,6-diamidino-2-phenylindole diluted 1:10000 in PBS.
Cells were fixed after 0, 2 and 4 days of differentiation and stained with the myosin heavy chain antibody MF20. […] In contrast, differentiation was more evident in cells that were incubated with caspase-8 inhibitor, z-LETD.fmk (FIG. 2B bottom panel, C).

C2C12 myoblasts [3] = experiment: Transfection of recombinant active caspase-3 protein into subconfluent C2C12 myoblasts in growth media; format: cell-based, mouse
Experimental: To further test a cell-autonomous role of caspase-3 in inducing myoblast differentiation, active caspase-3 protein was transfected into a subconfluent population of C2C12 myoblasts maintained in growth media. Sub-confluent C2C12 myoblasts were transfected with […] of recombinant active caspase-3 and examined after 12 h for the presence of myosin heavy chain (anti-MF20) detected using a FITC conjugated secondary antibody. A confluent population of cells were incubated in low serum media (differentiation media) to induce myoblast differentiation and examined after 12 h. In all cells examined, nuclei were localised with DAPI staining. The results are shown in FIG. 3, which is representative of 7 trials.

[4] = molecular target: T1, human MST1 (Mammalian Sterile Twenty-like kinase), full length, in vitro translated from MST1-pcDNA3.1 Myc/His
T1 chain: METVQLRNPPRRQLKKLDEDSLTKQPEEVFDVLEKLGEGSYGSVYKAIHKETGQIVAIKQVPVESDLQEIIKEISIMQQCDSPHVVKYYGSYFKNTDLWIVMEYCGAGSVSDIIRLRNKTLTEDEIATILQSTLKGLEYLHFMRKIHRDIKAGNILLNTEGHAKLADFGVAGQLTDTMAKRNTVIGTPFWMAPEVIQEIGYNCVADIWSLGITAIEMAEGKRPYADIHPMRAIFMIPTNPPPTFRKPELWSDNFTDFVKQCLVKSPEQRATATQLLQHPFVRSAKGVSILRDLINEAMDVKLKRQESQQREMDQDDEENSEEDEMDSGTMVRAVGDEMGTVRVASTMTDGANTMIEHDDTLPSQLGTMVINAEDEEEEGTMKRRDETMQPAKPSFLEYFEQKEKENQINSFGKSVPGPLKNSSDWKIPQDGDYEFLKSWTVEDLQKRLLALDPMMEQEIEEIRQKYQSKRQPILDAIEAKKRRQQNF

[5] = tested on: caspase-3-/- primary myoblasts; experiment: Transfection of MST1 constructs into caspase-3-/- primary myoblasts (rescue of myogenesis); format: cell-based, mouse; details: transient transfection, primary caspase-3-/- myoblasts
Experimental: as §1
Transfection Assays. The complete open reading frame of the human MST1, [Genbank Accession No. gi|1117790] obtained from a clone bank collection (Stratagene) was inserted into the expression vector pcDNA3.1 Myc/His (Invitrogen). A constitutively active MST1 (MST1-act) was prepared as previously described (Megeney, L. A., et al., (1996) Genes Dev 10, 1173-1183). The integrity of both MST1 and MST1-act were confirmed by sequencing. The kinase activity of these protein products were verified by transient transfection into COS1 cells followed by immunoprecipitation and kinase analysis using Histone-H1 as the target substrate (see below). Transfections with MST1 and MST1-act into both COS1 and primary myoblasts were performed using Lipofectamine Plus (Gibco) as directed in the manufacturer's instructions.
To delineate the effect of MST1 on myogenesis, wild-type MST1, an activated MST1 (aa 1-330, MST1-act) or plasmid alone was transiently transfected into primary myoblasts derived from caspase-3^−/− mice. The activity of these constructs was verified by Histone H1 targeted kinase analysis of MST1 from transiently transfected COS1 cells (FIG. 5A).

Molecule: CC[C@H](C)[C@H](NC(=O)OCc1ccccc1)C(=O)N[C@@H](CCC(=O)OC)C(=O)N[C@H](C(=O)N[C@@H](CC(=O)OC)C(=O)CF)[C@@H](C)O [z-IETD.fmk] (Cbz-IE(OMe)TD(OMe)-CH2F)
- neurite extensions / morphological changes [1]: did not affect morphological changes in neurosphere differentiation
- neurite extensions / morphological changes ([1]; listed as IETD): extensive neurite networking present

Molecule: COC(=O)CC[C@H](NC(=O)[C@H](CC(C)C)NC(=O)OCc1ccccc1)C(=O)N[C@H](C(=O)N[C@@H](CC(=O)OC)C(=O)CF)[C@@H](C)O [z-LETD.fmk] (Cbz-LE(OMe)TD(OMe)-CH2F)
- myotube formation (C2C12 myoblasts [2]; C2C12, low serum media, MF20 staining, up to 4 days, vs DMSO): minor attenuation of myotube formation
- degree of differentiation (C2C12 myoblasts [2]; C2C12, low serum, vs vehicle treated cells): remained below that observed in vehicle treated cells

Molecule: COC(=O)C[C@H](NC(=O)[C@H](C)NC(=O)[C@@H](NC(=O)OCc1ccccc1)C(C)C)C(=O)CF [z-VAD.fmk] (Cbz-Val-Ala-Asp(OMe)-CH2F)
- neurite extensions / morphological changes [1]: gave results similar to caspase 3 inhibition

B1: caspase-3 (endogenous, in lysates or cultures of mouse C2C12 myoblasts and mouse CD1 neurospheres) (protein)
chain: SGIYLDSSYKMDYPEMGICIIINNKNFHKSTGMSSRSGTDVDAANLRETFMGLKYQVRNKNDLTREDILELMDSVSKEDHSKRSSFVCVILSHGDEGVIYGTNGPVELKKLTSFFRGDYCRSLTGKPKLFIIQACRGTELDCGIETDSGTDEEMACQKIPVEADFLYAYSTAPGYYSWRNSKDGSWFIQSLCSMLKLYAHKLEFMHILTRVNRKVATEFESFSLDSTFHAKKQIPCIVSMLTKELYFYH
- transfected cells undergoing differentiation (C2C12 myoblasts [3]; C2C12 in growth media, 20 µg protein, 12 h, myosin heavy chain immunodetection, n=4): > 95%
- morphologic features of apoptosis (C2C12 myoblasts [3]; transfected C2C12 expressing myosin heavy chain): did not display any morphologic features normally attributed to apoptosis
- proteolytic cleavage of [35S]-methionine labelled MST1 by C2C12 lysates (SDS-PAGE, autoradiography) [4]: the lower 36 kDa MST1 fragment was not apparent in samples where caspase-3 activity was inhibited

B2: wild-type MST1: complete open reading frame of human MST1 in expression vector pcDNA3.1 Myc/His, transfected (protein)
chain: METVQLRNPPRRQLKKLDEDSLTKQPEEVFDVLEKLGEGSYGSVYKAIHKETGQIVAIKQVPVESDLQEIIKEISIMQQCDSPHVVKYYGSYFKNTDLWIVMEYCGAGSVSDIIRLRNKTLTEDEIATILQSTLKGLEYLHFMRKIHRDIKAGNILLNTEGHAKLADFGVAGQLTDTMAKRNTVIGTPFWMAPEVIQEIGYNCVADIWSLGITAIEMAEGKRPYADIHPMRAIFMIPTNPPPTFRKPELWSDNFTDFVKQCLVKSPEQRATATQLLQHPFVRSAKGVSILRDLINEAMDVKLKRQESQQREMDQDDEENSEEDEMDSGTMVRAVGDEMGTVRVASTMTDGANTMIEHDDTLPSQLGTMVINAEDEEEEGTMKRRDETMQPAKPSFLEYFEQKEKENQINSFGKSVPGPLKNSSDWKIPQDGDYEFLKSWTVEDLQKRLLALDPMMEQEIEEIRQKYQSKRQPILDAIEAKKRRQQNF
- myotube formation in caspase-3-/- myoblasts [5]: remained as mono-nucleated myoblasts

— patent US20060013804A1, “Modulation of stem cell differentiation by modulation of caspase-3 activity” (Ottawa Health Research Institute, priority 2002, published 2006)
